Laboratory results published in ChEMBL document CHEMBL5331043, “A comprehensive review on acridone based derivatives as future anti-cancer agents and their structure activity relationships” (Eur J Med Chem, 2022).
Converted amounts (≈) assume the structure as drawn. “And” between values parts separate entries of the source, which are not always exact repeats. Identical values can stand only once. One block for each compound: values may come before it.

Key:
UACC-62 = assay: Cytotoxicity against human UACC-62 cells; assay type: functional; settings: read-out: LC50 (the source's name)
M14 = assay: Cytotoxicity against human M14 cells; assay type: functional; settings: read-out: LC50 (the source's name)
A498 = assay: Cytotoxicity against human A498 cells; assay type: functional; settings: read-out: LC50 (the source's name)
NCI-H23 = assay: Cytotoxicity against human NCI-H23 cells; assay type: functional; settings: read-out: LC50 (the source's name)
MCF7 [1] = assay: Cytotoxicity against human MCF7 cells assessed as reduction in cell viability incubated for 72 hrs by MTT assay; assay type: functional, cell-based; settings: MCF7, 72 h
MDA-MB-231 = assay: Cytotoxicity against human MDA-MB-231 cells assessed as reduction in cell viability incubated for 72 hrs by MTT assay; assay type: functional, cell-based; settings: MDA-MB-231, 72 h
MCF7-DOX [2] = assay: Cytotoxicity against human MCF7-DOX cells; assay type: functional, cell-based
MCF7 [3] = assay: Cytotoxicity against human wild type MCF7 cells; assay type: functional, cell-based
[4] = Cytotoxicity against human MCF7/Mitox cells; assay type: functional, cell-based
[5] = molecular target: Stimulator of interferon genes protein (Homo sapiens, UniProt Q86WV6); assay: Activation of STING pathway in human 293T-hSTING-R232 cells incubated for 48 hrs by QUANTI-Luc assay; assay type: cell-based, 293T-hSTING-R232 cell
[6] = Cytotoxicity against human MDA-MB-231/BCRP cells assessed as reduction in cell growth by resazurin reduction assay; assay type: functional, cell-based
HL-60 [7] = assay: Cytotoxicity against human HL-60 cells assessed as cell growth inhibition incubated for 72 hrs by tryphan blue staining based analysis; assay type: functional; settings: HL-60, 72 h
[8] = Cytotoxicity against human mitoxantrone resistant human MCF7/Mitox cells assessed as reduction in cell viability incubated for 72 hrs by SRB assay; assay type: functional, cell-based
MCF7 [9] = assay: Cytotoxicity against human wild type MCF7 cells assessed as reduction in cell viability measured after 72 hrs by SRB assay; assay type: functional, cell-based; settings: MCF7, 72 h
MCF7-DOX [10] = assay: Cytotoxicity against human doxorubicin resistant MCF7-DOX cells assessed as reduction in cell viability incubated for 72 hrs by SRB assay; assay type: functional, cell-based
PC-3 [11] = assay: Antiproliferative activity against human PC-3 cells assessed as reduction in cell viability measured after 24 hrs by MTT assay; assay type: functional, cell-based; settings: PC-3, 24 h
[12] = molecular target: MAP/microtubule affinity-regulating kinase 4 (Homo sapiens, UniProt Q96L34); assay: Inhibition of human MARK4 ATPase activity using ATP as substrate incubated for 10 to 20 mins by Biomol green reagent based ELISA analysis
MCF7 [13] = assay: Antiproliferative activity against human MCF7 cells assessed as reduction in cell viability incubated for 48 hrs by MTT assay; assay type: functional, cell-based; settings: MCF7, 48 h
SW1573 = assay: Cytotoxicity against human SW1573 cells assessed as reduction in cell viability incubated for 72 hrs by SRB assay; assay type: functional, cell-based; settings: SW1573, 72 h
HL-60 [14] = assay: Anticancer activity against human HL-60 cells assessed as cell growth inhibition incubated for 72 hrs by MTT assay; assay type: functional, cell-based; settings: HL-60, 72 h
P388 = assay: Cytotoxicity against mouse P388 cells; assay type: functional, cell-based
[15] = Cytotoxicity against drug resistant human HL60/VCR assessed as inhibition of cell growth incubated for 72 hrs by SRB assay; assay type: functional, cell-based
HL-60 [16] = assay: Cytotoxicity against human HL-60 cells assessed as cell growth inhibition incubated for 72 hrs by SRB assay; assay type: functional, cell-based; settings: HL-60, 72 h
HL60/ADR = assay: Cytotoxicity against drug resistant human HL60/ADR cells assessed as inhibition of cell growth incubated for 72 hrs by SRB assay; assay type: functional, cell-based
CCRF-CEM = assay: Cytotoxicity against human CCRF-CEM cells assessed as cell growth inhibition; assay type: functional, cell-based
[17] = Cytotoxicity against human KB-ChR-8-5 cells assessed as reduction in cell growth incubated for 7 days in presence of vinblastine; assay type: functional, cell-based; settings: KB-ChR-8-5, 168 h
MCF7 [18] = assay: Cytotoxicity against human MCF7 cells assessed as cell growth inhibition incubated for 72 hrs by SRB assay; assay type: functional, cell-based; settings: MCF7, 72 h
[19] = Cytotoxicity against human SW1398 cells assessed as cell growth inhibition incubated for 72 hrs by SRB assay; assay type: functional, cell-based; settings: SW1398, 72 h
WiDr = assay: Cytotoxicity against human WiDr cells assessed as cell growth inhibition incubated for 72 hrs by SRB assay; assay type: functional, cell-based
MCF7 [20] = assay: Cytotoxicity against human MCF7 cells assessed as reduction in cell growth incubated for 72 hrs by SRB assay; assay type: functional, cell-based; settings: MCF7, 72 h
Raji = assay: Antitumor activity against human Raji cells xenografted in ICR mouse assessed as reduction in tumor growth measured after 20 weeks; assay type: functional; parameters: scale not given: the % may be the effect or the level left
[21] = Cytotoxicity against human KKU-213C assessed as reduction in cell viability incubated for 24 hrs by SRB assay; assay type: functional, cell-based
HepG2 [22] = assay: Cytotoxicity against human HepG2 cells assessed as reduction in cell viability incubated for 24 hrs by SRB assay; assay type: functional, cell-based; settings: HepG2, 24 h
MCF7 [23] = assay: Cytotoxicity against human MCF7 cells assessed as reduction in cell viability incubated for 48 hrs by alamar blue reagent based fluorescence assay; assay type: functional; settings: MCF7, 48 h
HepG2 [24] = assay: Cytotoxicity against human HepG2 cells assessed as reduction in cell viability incubated for 48 hrs by alamar blue reagent based fluorescence assay; assay type: functional; settings: HepG2, 48 h
MCF7 [25] = assay: Cytotoxicity against human MCF7 cells assessed as reduction in cell viability by SRB assay; assay type: functional, cell-based
MCF7 [26] = assay: Antitumor activity against human MCF7 cells xenografted in BALB/c nude mouse assessed as inhibition of tumor growth at 1 mg/kg, ip administered once daily for 21 days; assay type: functional; settings: MCF7, 504 h, time 21 day, read-out: TGI
HeLa = assay: Cytotoxicity against human HeLa cells assessed as reduction in cell viability measured after 72 hrs by MTT assay; assay type: functional, cell-based
A-431 = assay: Cytotoxicity against human A-431 cells assessed as reduction in cell viability measured after 72 hrs by MTT assay; assay type: functional, cell-based; settings: A-431, 72 h
MCF7 [27] = assay: Cytotoxicity against human MCF7 cells assessed as reduction in cell viability measured after 72 hrs by MTT assay; assay type: functional, cell-based; settings: MCF7, 72 h
PC-3 [28] = assay: Antiproliferative activity against human PC-3 cells assessed as reduction in cell viability incubated for 72 hrs by MTT assay; assay type: functional, cell-based; settings: PC-3, 72 h
A549 = assay: Antiproliferative activity against human A549 cells assessed as reduction in cell viability incubated for 72 hrs by MTT assay; assay type: functional, cell-based; settings: A549, 72 h
MCF7 [29] = assay: Antiproliferative activity against human MCF7 cells assessed as reduction in cell viability incubated for 72 hrs by MTT assay; assay type: functional, cell-based; settings: MCF7, 72 h
HepG2 [30] = assay: Antiproliferative activity against human HepG2 cells assessed as reduction in cell viability incubated for 72 hrs by MTT assay; assay type: functional, cell-based; settings: HepG2, 72 h

Chain of MAP/microtubule affinity-regulating kinase 4 (Q96L34 whole entry): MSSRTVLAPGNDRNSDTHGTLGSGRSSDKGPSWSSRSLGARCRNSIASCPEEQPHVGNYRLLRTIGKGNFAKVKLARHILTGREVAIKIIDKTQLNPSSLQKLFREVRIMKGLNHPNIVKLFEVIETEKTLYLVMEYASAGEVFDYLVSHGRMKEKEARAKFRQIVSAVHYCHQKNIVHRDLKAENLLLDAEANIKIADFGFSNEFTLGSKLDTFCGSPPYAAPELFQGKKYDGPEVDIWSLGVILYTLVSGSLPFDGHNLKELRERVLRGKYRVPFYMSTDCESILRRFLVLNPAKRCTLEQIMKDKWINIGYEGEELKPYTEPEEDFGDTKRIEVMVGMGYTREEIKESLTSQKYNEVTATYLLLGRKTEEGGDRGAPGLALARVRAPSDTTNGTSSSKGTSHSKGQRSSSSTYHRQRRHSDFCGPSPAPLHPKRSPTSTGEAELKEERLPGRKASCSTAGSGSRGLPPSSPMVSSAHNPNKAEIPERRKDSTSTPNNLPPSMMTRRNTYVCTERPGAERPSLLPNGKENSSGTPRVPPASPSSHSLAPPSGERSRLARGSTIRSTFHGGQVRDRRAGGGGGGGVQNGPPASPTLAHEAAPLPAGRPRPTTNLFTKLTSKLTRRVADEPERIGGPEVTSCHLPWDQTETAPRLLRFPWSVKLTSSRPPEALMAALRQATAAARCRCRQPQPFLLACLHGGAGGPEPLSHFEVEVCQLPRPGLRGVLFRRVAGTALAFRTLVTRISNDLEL
Chain of Stimulator of interferon genes protein (Q86WV6 whole entry): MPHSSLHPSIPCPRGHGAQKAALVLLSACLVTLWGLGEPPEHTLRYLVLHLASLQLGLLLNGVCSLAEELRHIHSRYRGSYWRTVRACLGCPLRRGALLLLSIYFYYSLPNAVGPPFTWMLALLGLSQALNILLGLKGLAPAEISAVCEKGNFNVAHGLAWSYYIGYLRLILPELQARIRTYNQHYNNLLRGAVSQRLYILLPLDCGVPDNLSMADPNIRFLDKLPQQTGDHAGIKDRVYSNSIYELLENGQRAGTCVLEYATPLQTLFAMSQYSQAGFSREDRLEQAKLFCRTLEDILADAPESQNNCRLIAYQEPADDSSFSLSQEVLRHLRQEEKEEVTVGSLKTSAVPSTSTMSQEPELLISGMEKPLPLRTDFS

Compound: COc1cc2c(cc1OCCCNC(=O)c1cccc3c(O)c4ccccc4nc13)N=C[C@@H]1CCCN1C2=O
CC50 (UACC-62): < 0.01 µM | CC50 (M14): < 0.01 µM | CC50 (A498): 0.05 µM | CC50 (NCI-H23): 0.07 µM

Compound: CCOC(=O)c1c(C)nc(NNC(=O)c2cccc3c(=O)c4ccccc4[nH]c23)nc1-c1ccc(F)cc1
IC50 (MCF7 [1]): 7.3 µM

Compound: CCOC(=O)c1c(C)nc(NNC(=O)c2cccc3c(=O)c4ccccc4[nH]c23)nc1-c1ccccc1F
IC50 (MDA-MB-231): 7.12 µM

Compound: CCOC(=O)c1c(C)nc(NNC(=O)c2cccc3c(=O)c4ccccc4[nH]c23)nc1-c1ccc(OC)cc1
IC50 (MDA-MB-231): 6.28 µM

Compound: Cc1ccc(NC(=O)c2cccc3c(=O)c4ccccc4[nH]c23)cc1
IC50 (MCF7-DOX [2]): 8.3 µM | IC50 (MCF7 [3]): 6.5 µM | IC50 [4]: 7.4 µM

EC50 [5]: 134 µM
Compound: COc1cc2c(=O)c3cccc(CC(=O)O)c3[nH]c2c(C)c1C

Compound: COc1cc(OC)c2c(=O)c3ccccc3n(C)c2c1
IC50 [6]: 3.38 µM

Compound: CCOC(=O)c1c(C)nc(NNC(=O)c2cccc3c(=O)c4ccccc4[nH]c23)nc1-c1ccc(CC(C)C)cc1
IC50 (MCF7 [1]): 4.32 µM | IC50 (MDA-MB-231): 8.61 µM

Compound: CCN(CC)CCCCn1c2ccccc2c(=O)c2c(OC(C)=O)cc(OC(C)=O)cc21
IC50 (HL-60 [7]): 0.45 µM

Compound: O=C(c1ccc2c(c1)c(=O)c1ccccc1n2CCCCO[N+](=O)[O-])N1CCOCC1
IC50 [8]: 0.8 µM and > 2.7 µM | IC50 (MCF7 [9]): 0.8 µM | IC50 (MCF7-DOX [10]): > 1.9 µM

IC50 (PC-3 [11]): 1.2 µM
Compound: CN(C)CCNC(=O)c1ccc([N+](=O)[O-])c2[nH]c3ccccc3c(=O)c12

IC50 [12]: 1.8 µM | IC50 (MCF7 [13]): 5.2 µM
Compound: Cc1ccc(NC(=O)Cn2c3ccccc3c(=O)c3cc(C)ccc32)cc1

Compound: O=C(NN1CCN(c2ccccc2)CC1)c1cccc2c(=O)c3ccccc3[nH]c12
IC50 (MCF7-DOX [2]): 6.6 µM | IC50 (MCF7 [3]): 4.5 µM | IC50 [4]: 5.1 µM

Compound: O=c1c2ccccc2n(CCCCN2CCN(CCO)CC2)c2c(F)cccc12
IC50 (SW1573): 5.1 µM

IC50 (HL-60 [14]): 0.007 µM
Compound: N#Cc1c(F)c(Cl)c2[nH]c3ccccc3c(=O)c2c1F

Compound: CN(C)CCn1c(=O)c2cc(N)cc3c(=O)c4ccccc4n(c1=O)c32
IC50 (P388): 63 µM

Compound: CC(=O)Nc1ccc2[nH]c3c(C(=O)NCCN(C)C)cccc3c(=O)c2c1
IC50 (P388): 22 µM

Compound: O=c1c2ccccc2n(CCCCN2CCN(CCO)CC2)c2c(Cl)cccc12
IC50 [15]: 0.49 µM | IC50 (HL-60 [16]): 0.45 µM | IC50 (HL60/ADR): 1.07 µM

Compound: CCN(CC)CCCCn1c2ccccc2c(=O)c2cc(F)ccc21
IC50 (HL-60 [7]): 0.51 µM

Compound: COc1cc(Cn2c3ccc(C(=O)CCN4CCCC4)cc3c(=O)c3cc(C(=O)NCCN4CCCC4)ccc32)cc(OC)c1
IC50 (CCRF-CEM): 0.28 µM

IC50 (PC-3 [11]): 2 µM
Compound: CCN(CC)CCNC(=O)c1ccc([N+](=O)[O-])c2[nH]c3ccccc3c(=O)c12

Compound: O=C(c1cccc2c(=O)c3ccccc3[nH]c12)N1CCN(c2ccccc2)CC1
IC50 (MCF7-DOX [2]): 6.5 µM | IC50 (MCF7 [3]): 4.5 µM | IC50 [4]: 5.1 µM

Compound: CC(=O)Nc1cc2c(=O)c3ccccc3n3c(=O)n(CCN(C)C)c(=O)c(c1)c23
IC50 (P388): 0.86 µM

Compound: O=c1c2ccccc2n(CCCCN2CCN(CCO)CC2)c2ccc(Br)cc12
IC50 [17]: 3.7 µM

Compound: O=C(NC(=O)n1c(-c2ccccc2)nc2ccc(Br)cc2c1=O)c1cccc2c(=O)c3ccccc3[nH]c12
IC50 (MCF7 [18]): 7.9 µM | IC50 [19]: 6 µM | IC50 (WiDr): 9.8 µM | IC50 (MCF7 [20]): 2.9 µM

IC50 [12]: 1.8 µM | IC50 (MCF7 [13]): 5.2 µM
Compound: COc1ccc(CNC(=O)Cn2c3ccccc3c(=O)c3cc(C)ccc32)cc1

Compound: CC(C)=CCc1c(O)c(CC=C(C)C)c2c(c1O)c(=O)c1ccccc1n2C
Activity (Raji): 48%

IC50 (MCF7 [13]): 5.2 µM
Compound: Cc1ccc2c(c1)c(=O)c1ccccc1n2CC(=O)NCc1ccccc1

Compound: COc1cc2[nH]c3c(O)cccc3c(=O)c2c(O)c1CC=C(C)C
IC50 [21]: 1.43 µg/mL (≈ 4.4 µM) | IC50 (HepG2 [22]): 1.43 µg/mL (≈ 4.4 µM)

Compound: COc1cc(O)c(OC)c2c1c(=O)c1cccc(O)c1n2C
IC50 (MCF7 [23]): 0.22 µM | IC50 (HepG2 [24]): 0.22 µM

Compound: COc1cccc2c(=O)c3ccccc3n(CCCCN3CCN(CCO)CC3)c12
IC50 [17]: < 6 µM

Compound: Cc1ccc2c(c1)c(=O)c1ccccc1n2CCCCN(CCO)CCO
IC50 (MCF7 [25]): 6.1 µM

Compound: Cc1cccc2c(=O)c3ccccc3n(CCCCN(CCO)CCO)c12
IC50 (MCF7 [25]): 8.1 µM

Compound: O=c1c2ccccc2[nH]c2ccccc12 [ACRIDONE]
inhibition in vivo at 1 mg/kg (MCF7 [26]): 29%

Compound: COc1cc2c(c(O)c1OC)c(=O)c1ccccc1n2C [ARBORININE]
IC50 (HeLa): 1.84 µM | IC50 (A-431): 1.84 µM | IC50 (MCF7 [27]): 1.84 µM

IC50 (PC-3 [28]): 12.5 µM | IC50 (A549): 12.5 µM | IC50 (MCF7 [29]): 12.5 µM | IC50 (HepG2 [30]): 12.5 µM
Compound: COc1c(O)ccc2c(=O)c3c(O)cc4c(c3n(C)c12)C=CC(C)(C)O4 [CITRACRIDONE I]

Compound: COc1cc(O)c2c(=O)c3cccc(O)c3n(C)c2c1OC [CITRUSININE-I]
IC50 (MCF7 [23]): 0.22 µM | IC50 (HepG2 [24]): 0.22 µM
